Assay: Stability of the prior-art amorphous solid form in the solid pharmaceutical form under ICH accelerated conditions
Format: physicochemical
Details: amorphous solid form described in EP 129 26 07, ICH accelerated conditions (40° C., 75% r.h.)
Description: According to the details disclosed in the literature, it is not possible to prepare the individual intermediates on the manufacturing scale in such a way that the medicinally active asoprisnil and its precursors can be obtained therefrom reliably and reproducibly and having the analytical parameters required by the authorities or by the legislation pursuant to ICH Q6A Guidance, 2000, such as byproduct profile, content of active ingredient, chemical and physical purity, and stability. […] The suitability of the asoprisnil obtainable by this method for a solid pharmaceutical form is accordingly low.

Physical stability in the solid pharmaceutical form (recrystallization): partial to complete recrystallization
SMILES: COC[C@]1(OC)CC[C@H]2[C@@H]3CCC4=CC(=O)CCC4=C3[C@@H](c3ccc(/C=N/O)cc3)C[C@@]21C [asoprisnil, 4-[17β-methoxy-17α-methoxymethyl-3-oxoestra-4,9-dien-11β-yl]benzaldehyde (E)-oxime]
